Measurements reported in EP3056202A1, “BENZOPYRROLIDONE DERIVATIVES POSSESSING ANTIVIRAL AND ANTICANCER PROPERTIES” (Max-Planck-Gesellschaft zur Förderung der Wissenschaften …, priority 2015, dated 2016).
≈ marks a conversion by molar mass, not a printed value.

Columns and labels:
[1] = test system: HCT-116 human colon carcinoma cell line; assay: In vitro growth inhibition of colon carcinoma cells, HCT-116 (CellTiter-Glo); format: cell-based; settings: 72 hours incubation, read-out: HCT116 EC50
physchem = format: physicochemical; settings: kinetic from dmso stock
Procedure: Samples were diluted in DMSO (control), phosphate buffer pH = 7.4 and pH = 2.0, from 5mM stock solutions (solved in DMSO), with a 120 µM final concentration. The samples were incubated for 24 hours at room temperature followed by 30 minutes centrifugation at 3700 rpm. 40 µl of the supernatants were injected into HPLC (Waters 2795 Alliance HPLC equipped with Waters 996 PDA Detector (HPLC column: Waters XBridge, RP C18, 3.5 µm, 4.6 mm x 50 mm; gradient MeCN/H2O, containing 0.1% HCOOH: 5% MeCN (0.5 min), 5% to 95% MeCN (5 min), 95% MeCN (0.5 min); flow rate: 2.0 ml/min)) and the AUC values (measured on sample specific wavelength) of the buffered samples were divided by the AUC values (same wavelength as buffered samples') of the DMSO control samples. Table 3: Solubility in water for several compounds according to general formula (I)

[2] = test system: A549 human lung carcinoma cells; assay: Cell-based EC50 determination, A549 cells (CellTiter-Glo cell viability); settings: A549, 24 h, read-out: A549 EC50 24h
Procedure: A549 human lung carcinoma cells were cultured in RPMI 1640 medium (Sigma) supplemented with 10% fetal bovine serum (Sigma) and Antibiotic-Antimycotic (Sigma) in tissue culture flasks at 37°C in a humidified 5% CO2 atmosphere. Cells were routinely assayed for mycoplasma contamination.
Two thousand cells were plated in 384-well tissue culture plates, and treated after 24 hours with a 10-point dilution series of the compounds (1.5 nM-30 uM), using the vehicle, DMSO as control. Cells were incubated for 24 hours after which the relative cell density was determined by CellTiter-Glo Luminescent Cell Viability Assay (Promega). This method determines the number of metabolically active cells in the culture based on quantitation of the ATP present. The luminescent signal was measured with an Analyst GT multimode reader (Molecular Devices). […]

human Clk1 kinase = biological target: T1, human Clk1 kinase (Homo sapiens, UniProt P49759); assay: In vitro Clk1 assay (IMAP fluorescence polarization); format: biochemical; settings: 0.45 µM ATP
T1 construct: Each reaction consisted of 4 nM enzyme: Clk1 kinase domain
T1 sequence (P49759 161-477 limits assumed): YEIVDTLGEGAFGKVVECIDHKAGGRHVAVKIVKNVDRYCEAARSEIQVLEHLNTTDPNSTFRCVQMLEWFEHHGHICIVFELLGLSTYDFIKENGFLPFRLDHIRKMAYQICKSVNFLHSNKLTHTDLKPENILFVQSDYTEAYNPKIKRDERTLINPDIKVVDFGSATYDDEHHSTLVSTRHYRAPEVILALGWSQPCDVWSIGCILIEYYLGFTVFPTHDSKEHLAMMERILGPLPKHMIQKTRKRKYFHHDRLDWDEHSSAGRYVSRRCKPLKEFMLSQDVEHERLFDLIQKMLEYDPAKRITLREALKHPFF
Procedure: The activity of the compounds described in the present invention can be determined by the following kinase assay, which measures the phosphorylation of a fluorescently-labeled peptide by human Clk1 kinase by fluorescent polarization using a commercially available IMAP Screening Express Assay Kit (Molecular Devices).
Clk1 kinase assays were performed in low protein binding 384-well plates (Corning). Test compounds were diluted in 100% DMSO to 5 mM stock concentration and then further dilutions were made in H2O or 100% DMSO to desirable concentrations.
Each reaction consisted of 4 nM enzyme: Clk1 kinase domain, 400 nM TAMRA-AFRREWSPGKEAKK-NH2 (Genecust), 0.45 µM ATP (Sigma) and kinase buffer: 20 mM TRIS pH 8, 1 mM DTT, 0.4 mM MgCl2, 0.4 mM MnCl2, 0.01 V/V% Tween20 (all reagents from Sigma-Aldrich)
(§1) For each reaction, 4 or 6 µl containing TAMRA-peptide, ATP and kinase buffer were combined with 2 µl diluted compound in H2O or 0.02 µl compound in 100% DMSO. The kinase reaction was started by the addition of 2 µl diluted enzyme. The reaction was allowed to run for 1 hour at room temperature. The reaction was stopped by adding 15 µl IMAP beads (1:600 beads in progressive (80 % buffer A, 20% buffer B) 1x buffer). After an additional hour, fluorescent polarization (Ex: 550-10 nm, Em: 590-10 nm, Dich: 561 nm) was measured using an Analyst GT (Molecular Devices).

[3] = test system: HKE3 human colon carcinoma cell line; assay: In vitro growth inhibition of colon carcinoma cells, HKE3 (CellTiter-Glo); format: cell-based; settings: 72 hours incubation
[4] = test system: H1 N1 influenza virus strain A/WSN/33; assay: microbe, parasite or virus in culture; format: cell-based; settings: 36 h, read-out: Influenza replication IC50
human Ack1 kinase = human Ack1 kinase (Homo sapiens, UniProt Q07912); assay: In vitro Ack1 assay (TranScreener ADP2 FP, generation of ADP); format: biochemical; settings: 12.5 uM compound; 3.5 µM ATP; read-out: Ack1 inh% @12.5 uM
Chain of human Ack1 kinase (Q07912 whole entry): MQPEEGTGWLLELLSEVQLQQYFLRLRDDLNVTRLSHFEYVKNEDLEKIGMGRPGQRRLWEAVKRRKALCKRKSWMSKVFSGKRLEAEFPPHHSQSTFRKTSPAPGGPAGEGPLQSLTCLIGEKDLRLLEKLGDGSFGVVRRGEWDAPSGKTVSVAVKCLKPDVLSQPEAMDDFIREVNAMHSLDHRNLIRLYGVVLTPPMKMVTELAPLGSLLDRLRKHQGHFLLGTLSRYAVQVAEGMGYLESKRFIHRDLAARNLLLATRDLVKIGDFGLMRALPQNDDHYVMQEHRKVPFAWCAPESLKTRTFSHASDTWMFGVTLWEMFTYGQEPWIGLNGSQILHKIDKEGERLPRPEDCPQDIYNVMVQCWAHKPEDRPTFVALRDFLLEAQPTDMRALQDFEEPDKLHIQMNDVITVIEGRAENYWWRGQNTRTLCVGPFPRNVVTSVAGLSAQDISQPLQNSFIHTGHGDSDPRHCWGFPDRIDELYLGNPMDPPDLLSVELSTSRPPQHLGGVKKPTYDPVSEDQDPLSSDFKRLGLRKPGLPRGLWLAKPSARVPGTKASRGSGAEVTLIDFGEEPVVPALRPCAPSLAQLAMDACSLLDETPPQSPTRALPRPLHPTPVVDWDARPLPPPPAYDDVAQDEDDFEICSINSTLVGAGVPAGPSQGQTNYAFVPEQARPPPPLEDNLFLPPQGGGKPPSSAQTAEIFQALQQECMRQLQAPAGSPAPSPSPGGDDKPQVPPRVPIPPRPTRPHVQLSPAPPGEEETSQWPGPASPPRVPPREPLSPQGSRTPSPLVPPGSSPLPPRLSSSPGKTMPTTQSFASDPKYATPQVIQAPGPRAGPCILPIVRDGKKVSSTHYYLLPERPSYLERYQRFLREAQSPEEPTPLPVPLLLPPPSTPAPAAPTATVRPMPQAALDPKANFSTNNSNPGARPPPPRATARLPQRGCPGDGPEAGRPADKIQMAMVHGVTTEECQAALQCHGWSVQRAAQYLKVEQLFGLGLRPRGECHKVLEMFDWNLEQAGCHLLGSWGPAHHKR
Procedure: The activity of the compounds described in the present invention can be determined by the following kinase assay, which measures the generation of ADP by human Ack1 kinase by fluorescent polarization using a commercially available TranScreener ADP2 FP Assay Kit (BellBrook Labs).
Ack1 kinase assays were performed in low protein binding 384-well plates (Corning). Test compounds were diluted in 100% DMSO to 5 mM stock concentration and then further dilutions were made in H2O or 100% DMSO to desirable concentrations.
Each reaction consisted of 5 nM enzyme: Ack1 kinase, Poly Glu-Tyr (4:1) (Sigma), 3.5 µM ATP and kinase buffer: 20 mM HEPES pH7.5, 1 mM DTT, 2 mM MgCl2, 0.4 mM MnCl2, 0.01 V/V% Tween20 (all reagents from Sigma-Aldrich)
For each reaction, 4 or 6 µl containing Poly Glu-Tyr (4:1), ATP and kinase buffer were combined with 2 µl diluted compound in H2O or 0.02 µl compound in 100% DMSO. The kinase reaction was started by the addition of 2 µl diluted enzyme. The reaction was allowed to run for 1 hour at room temperature. The reaction was stopped by addition of 8 µl ADP detection mixture (1 x) (1 x Detection buffer + 4.78 µg/ml ADP2 Ab + 4 nM ADP Alexa633 Tracer). After an additional hour, fluorescent polarization (Ex: 630-35 nm, Em: 680-30 nm, Dich: 650 nm) was measured using an Analyst GT (Molecular Devices).

human Akt1 kinase = human Akt1 kinase (Homo sapiens, UniProt P31749); assay: In vitro Akt1 assay (IMAP fluorescence polarization, phosphorylation of TAMRA-peptide); format: biochemical; settings: 40 µM ATP
Chain of human Akt1 kinase (P31749 whole entry): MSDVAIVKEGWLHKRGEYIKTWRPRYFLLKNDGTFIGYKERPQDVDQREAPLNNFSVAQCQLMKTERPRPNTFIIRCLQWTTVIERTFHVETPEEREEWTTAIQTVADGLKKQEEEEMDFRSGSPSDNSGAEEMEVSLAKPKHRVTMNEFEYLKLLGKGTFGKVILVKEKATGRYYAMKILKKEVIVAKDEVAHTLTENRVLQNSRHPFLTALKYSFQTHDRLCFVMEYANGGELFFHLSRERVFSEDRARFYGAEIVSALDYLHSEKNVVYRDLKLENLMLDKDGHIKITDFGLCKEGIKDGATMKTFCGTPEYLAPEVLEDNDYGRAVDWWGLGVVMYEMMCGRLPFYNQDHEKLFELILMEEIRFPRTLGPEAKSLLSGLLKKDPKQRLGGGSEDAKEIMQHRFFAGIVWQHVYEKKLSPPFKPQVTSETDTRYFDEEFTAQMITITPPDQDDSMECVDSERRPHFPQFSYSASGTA
Procedure: The inhibition of Akt1 by the compounds described in the present invention were determined measuring the phosphorylation of a fluorescently-labeled peptide (TAMRA-peptide) by human Akt1 kinase by fluorescent polarization using a commercially available IMAP Screening Express Assay Kit (Molecular Devices).
Akt1 kinase assays were performed in low protein binding 384-well plates (Corning). Test compounds were diluted in 100% DMSO to 5 mM stock concentration and then further dilutions were made in H2O or 100% DMSO to desirable concentrations.
Each reaction consisted of 5 nM enzyme: Akt1 kinase, 400 nM TAMRA-peptide (5-TAMRA-GRTGRRNSI-COOH; Genecust), 40 µM ATP and kinase buffer: 20 mM MES pH6, 1 mM DTT, 10 mM MgCl2, 2 mM MnCl2, 0.01 V/V% TritonX (all reagents from Sigma-Aldrich).
as §1, with “(1:400” for “(1:600”, “(75%” for “(80 %”, “25%” for “20%”

[5] = test system: HepG2 hepatoblastomaderived cell line; assay: In vitro growth inhibition, HepG2 (CellTiter-Glo); format: cell-based; settings: Homo sapiens, 72 hours incubation

With `C[C@H](NC(=O)c1ccc2c(c1)/C(=C(/Nc1ccc(CN3CCCCC3)cc1)c1ccccc1)C(=O)N2)c1ccccc1` [Compound 30, (3Z)-2-oxo-N-[(1S)-1-phenylethyl]-3-(phenyl{[4-(piperidin-1-ylmethyl)phenyl]amino}methylene)indoline-5-carboxamide] the EC50 [1] was 10 nM, the solubility at 24 h (physchem; pH 2, aqueous buffer) was 110 to 120 µM (≈ 61.2 to 66.8 µg/mL) and the solubility at 24 h (physchem; pH 7.4, aqueous buffer) was less than 10 µM. It also gave an EC50 [2] of 5980 nM, an IC50 (human Clk1 kinase) of 10 nM and an EC50 [3] of 10 nM. It also gave an IC50 [4] of less than 10 nM, an inhibition at 12.5 µM (human Ack1 kinase) of 80.5% and an inhibition at 12.5 µM (human Akt1 kinase; 12.5 uM compound, read-out: Akt1 inh% @12.5 uM) of 93%. The IC50 (human Akt1 kinase) was 1300 nM and the EC50 [5] was 580 nM.
